From paper PMC13032676, “PGM1 deficiency is linked to sarcomeric and mitochondrial dysfunction in patient-derived iPSC-cardiomyocytes” (Journal of Translational Medicine, 2026)
“Also recorded” adds a separate entry of the source.

Tests used:
human PGM1 = target: T1, human PGM1 (Homo sapiens, UniProt P36871); assay: Microscale-thermophoresis binding of ZM peptides to PGM1; settings: His6-PGM1 labeled with RED-tris-NTA, 50 nM labeled PGM1, peptide 375 mM to 11.4 nM (16-step series), 10 min in the dark, 22 °C, 40% excitation power, 40% MST power, MO.Affinity v.2.2.4
T1 construct: made in house
T1 sequence (P36871 1-562): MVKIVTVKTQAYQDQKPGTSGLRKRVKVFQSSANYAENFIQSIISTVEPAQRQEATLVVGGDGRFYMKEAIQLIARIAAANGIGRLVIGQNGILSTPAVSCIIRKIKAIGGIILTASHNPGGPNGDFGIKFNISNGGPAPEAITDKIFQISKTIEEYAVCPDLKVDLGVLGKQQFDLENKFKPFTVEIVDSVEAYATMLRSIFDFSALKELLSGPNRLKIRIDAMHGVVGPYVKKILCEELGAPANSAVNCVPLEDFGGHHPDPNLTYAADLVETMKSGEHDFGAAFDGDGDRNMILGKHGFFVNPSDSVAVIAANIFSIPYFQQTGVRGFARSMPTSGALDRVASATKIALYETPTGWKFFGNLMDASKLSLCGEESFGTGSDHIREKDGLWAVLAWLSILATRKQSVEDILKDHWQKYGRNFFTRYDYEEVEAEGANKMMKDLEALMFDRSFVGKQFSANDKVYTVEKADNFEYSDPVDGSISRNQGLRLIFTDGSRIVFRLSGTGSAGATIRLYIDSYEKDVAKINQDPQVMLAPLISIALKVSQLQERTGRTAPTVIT
From the text: For microscale-thermophoresis studies, a peptide representing the conserved Zasp motif (ZM) of ZASP/Cypher (26-mer: […]) and a corresponding peptide with the T106I mutation (underscored in sequence) were synthesized by ABI Scientific. A vector for recombinant expression of human PGM1 has been previously described. PGM1 was expressed and purified as previously described.
For binding studies, PGM1 was labeled using a commercial kit (NanoTemper Technologies, Inc.) according to the manufacturer’s specifications. Briefly, PGM1 was incubated at room temperature for 30 min with RED-tris-NTA dye, which specifically labels His6 tags, resulting in 100 nM labeled protein. The wild-type and T106I ZM peptides were serially diluted into a series of 16 PCR strip tubes and mixed 1:1 with labeled PGM1. The final concentration series of each peptide was […] to 11.4 nM, with all tubes containing 50 nM labeled PGM1. Samples were incubated in the dark for 10 min prior to use. Standard capillaries (Nanotemper MO-K022) were used to draw up the liquid and placed onto the sample tray of the Monolith NT.115 instrument (NanoTemper). Measurements were performed at 22 °C with control software at 40% excitation power and 40% MST power. Kd values were calculated using the MO. Affinity software v.2.2.4 (NanoTemper Technologies).

PGM1-CDG individuals = settings: [5], [10], [11], [13] (b5), ref [7], cited from earlier work
[1] = tested on: PGM1-deficient fibroblasts; settings: ref [5], [61]; cited from earlier work
From the text: First, we performed targeted tracer metabolomics studies of central carbon metabolism. Previously, decreased UDP-Hexose levels were linked to reduced glycosylation in PGM1-CDG, which improve in presence of galactose.

PGM1-deficient iCMs = assay: Untargeted N-glycoproteomics; assay type: cell-based, human; settings: low galactose in culture medium (in-house estimate 0.5 mM), no galactose-free arm
Method: Untargeted proteomics and N-glycoproteomics were performed to assess the (glyco)protein expression changes between PGM1-deficient and CTR iCMs based on previously published protocols (see supplementary materials for details).
Proteomics and N-glycoproteomics data analysis was performed as described previously. The proteomics data were searched using Sequest search engine in Proteome Discoverer 3.0 against the human Uniprot protein database. The N-glycoproteomics data using the publicly available software pGlyco version 3 with an in-built N-glycan database for identifying glycans and human Uniprot protein database for identifying peptide sequence. Two missed cleavages were allowed for both proteomics and glycoproteomics analysis. Error tolerance for precursor and fragment ions were set to 10 ppm and 0.02 Da, respectively, for proteomics and 10 ppm and 20 ppm, respectively, for glycoproteomics. […] For proteomics, quantitation of peptides across PGM1-CDG and […] was done using TMT reporter ion intensities using “reporter ion quantifier” node. To quantify glycopeptides, reporter ion quantification was performed for glycoproteomics raw files in Proteome Discoverer and glycopeptide IDs obtained from pGlyco were matched with quantitation on a scan-to-scan basis (MS/MS). […]

Molecule	in vitro binding affinity to PGM1 (Kd, in words) (human PGM1)	effect on cardiac (and skeletal muscle) manifestations (in words) (PGM1-CDG individuals; galactose therapy in PGM1-CDG, ref [3], [7], [18])	effect on glycosylation and systemic features (in words) (PGM1-CDG individuals; oral galactose supplementation in PGM1-CDG, ref [1], [3], [12])	effect on UDP-hexose levels (in words) [1]	effect on glycosylation (in words) (PGM1-deficient iCMs)
SSQPRQYNNPIGLYSAETLREMAQMY [wild-type ZM peptide, peptide representing the conserved Zasp motif (ZM) of ZASP/Cypher (26-mer)]	high-affinity binding (low µM)	–	–	–	–
O=C[C@H](O)[C@@H](O)[C@@H](O)[C@H](O)CO [galactose]	–	fails to ameliorate cardiac and skeletal muscle involvement; also recorded: cardiac involvement does not respond to galactose therapy; also recorded: cardiac manifestations remain largely refractory to treatment	improves systemic features; also recorded: effective correction of glycosylation defects and improvement of systemic clinical features	normalize UDP-hexose levels in PGM1-deficient fibroblasts	partially restores glycosylation in PGM1-deficient iCMs; also recorded: sufficient to partially restore glycosylation in PGM1-deficient iCMs
LDB3 T206I mutant: corresponding peptide with the T106I mutation; dilated cardiomyopathy-associated LDB3 T206I mutant peptide (SSQPRQYNNPIGLYSAEILREMAQMY)	substantially reduced binding affinity (high µM)	–	–	–	–
